Measured values: ChEMBL document CHEMBL4665787, “Bifunctional and Unusual Amino Acid β- or γ-Ester Prodrugs of Nucleoside Analogues for Improved Affinity to ATB and Enhanced Metabolic Stability: An Application to Floxuridine” (J Med Chem, 2020)
Each block holds one molecule with its values, some of them ahead of it.

Experiments:
[1] = molecular target: T1, Solute carrier family 15 member 1 (Homo sapiens, UniProt P46059); assay: Substrate activity at PEPT1 (unknown origin) expressed in MDCK cells assessed as PEPT1 mediated drug uptake at 0.5 mM incubated for 10 mins by HPLC analysis; assay type: ADME, cell-based; settings: 500 µM
T1 sequence (P46059 whole entry): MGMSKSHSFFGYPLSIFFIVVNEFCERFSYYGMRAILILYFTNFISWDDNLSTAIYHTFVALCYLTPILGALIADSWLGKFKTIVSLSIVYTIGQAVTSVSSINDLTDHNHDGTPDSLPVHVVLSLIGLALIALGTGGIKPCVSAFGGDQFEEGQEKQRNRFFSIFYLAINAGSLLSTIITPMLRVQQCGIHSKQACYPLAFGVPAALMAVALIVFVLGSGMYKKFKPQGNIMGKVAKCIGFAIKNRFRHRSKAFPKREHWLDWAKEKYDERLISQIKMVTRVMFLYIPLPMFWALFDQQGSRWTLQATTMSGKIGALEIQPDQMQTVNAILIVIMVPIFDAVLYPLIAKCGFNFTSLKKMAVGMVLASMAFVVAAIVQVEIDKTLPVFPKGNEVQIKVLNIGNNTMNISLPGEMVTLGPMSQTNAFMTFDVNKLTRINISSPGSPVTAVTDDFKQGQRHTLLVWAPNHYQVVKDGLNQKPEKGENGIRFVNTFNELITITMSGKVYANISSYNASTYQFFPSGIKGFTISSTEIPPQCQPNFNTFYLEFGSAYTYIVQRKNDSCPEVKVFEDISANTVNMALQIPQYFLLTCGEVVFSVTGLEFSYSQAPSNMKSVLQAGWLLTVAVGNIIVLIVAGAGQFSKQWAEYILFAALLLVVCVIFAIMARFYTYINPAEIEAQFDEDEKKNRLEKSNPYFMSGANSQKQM

[2] = Toxicity in NOD SCID nude mouse xenografted with human MDA-MB-231 cells assessed as body weight at 90 mg/kg, iv for 20 days (reference value: 30.1 +/- 4.1g); assay type: organism-based; settings: in vivo, 480 h, time 20 day
[3] = Toxicity in NOD SCID nude mouse xenografted with human MIA PaCa-2 cells assessed as body weight at 90 mg/kg, iv for 20 days (reference value: 28.4 +/- 2.1g); assay type: organism-based; settings: in vivo, 480 h, time 20 day
[4] = Drug uptake in MDCK cells incubated for 10 mins by HPLC analysis; assay type: ADME, cell-based, Canis lupus familiaris; settings: dog, 500 µM, dose 0.5 mM
[5] = Cmax in NOD SCID nude mouse plasma xenografted with ZR-75-1 cells assessed as fluorouracil at 90 mg/kg, iv measured up to 24 hrs by HPLC-MS/MS analysis; assay type: ADME, organism-based; design: route intravenous, dose 90 mg/kg, time <=24; settings: in vivo
[6] = Cmax in NOD SCID nude mouse tumour xenografted with ZR-75-1 cells assessed as floxuridine; 5-fluoro-2-deoxyuridine concentration at 90 mg/kg, iv measured up to 24 hrs by HPLC-MS/MS analysis; assay type: ADME, organism-based, Neoplasm; design: route intravenous, dose 90 mg/kg, time <=24; settings: in vivo
thymidine phosphorylase = assay: Half life of compound in thymidine phosphorylase buffer at 300 uM by HPLC analysis; assay type: physicochemical
[7] = Drug uptake in Xenopus laevis oocytes at 0.5 mM incubated for 10 mins by HPLC analysis; assay type: ADME, cell-based; settings: oocyte, 500 µM
[8] = Toxicity in NOD SCID nude mouse xenografted with human ZR-75-1 cells assessed as body weight at 90 mg/kg, iv for 20 days (reference value: 29.2 +/- 2.5g); assay type: organism-based; settings: in vivo, 480 h, time 20 day
ZR-75-1 = assay: Antitumour activity against human ZR-75-1 cells xenografted in NOD SCID nude mouse assessed as tumour inhibition at 90 mg/kg, iv administered for 20 days measured every 2 day by caliper method relative to control; assay type: functional; settings: ZR-75-1, iv, 480 h, time 20 day
[9] = AUC (0 to t) in NOD SCID nude mouse plasma xenografted with ZR-75-1 cells assessed as fluorouracil AUC at 90 mg/kg, iv measured up to 24 hrs by HPLC-MS/MS analysis; assay type: ADME, organism-based; design: route intravenous, dose 90 mg/kg, time <=24; settings: in vivo
[10] = Selectivity ratio of substrate activity at SLC6A14 (unknown origin) expressed in Xenopus laevis oocytes assessed as ABT0+ mediated drug uptake to drug uptake in Xenopus laevis oocytes; design: species or system Oocyte
[11] = molecular target: T1, Solute carrier family 15 member 1; assay: Substrate activity at PEPT1 (unknown origin) expressed in MDCK cells assessed as inhibition of gly-sar uptake incubated for 10 mins by HPLC/MS/MS analysis; assay type: cell-based
[12] = Half life of compound in human MDA-MB-231 cell homogenate; assay type: ADME, tissue-based
[13] = Ratio of AUC (0 to t) in NOD SCID nude mouse plasma xenografted with ZR-75-1 cells to AUC (0 to t) in NOD SCID mouse tumour xenografted with ZR-75-1 cells; assay type: ADME, cell-free, Tumor/Plasma
[14] = AUC (0 to t) in NOD SCID nude mouse tumour xenografted with ZR-75-1 cells assessed as floxuridine; 5-fluoro-2-deoxyuridine AUC at 90 mg/kg, iv measured up to 24 hrs by HPLC-MS/MS analysis; assay type: ADME, organism-based, Neoplasm; settings: in vivo
[15] = Half life of compound in human ZR-75-1 cell homogenate; assay type: ADME, tissue-based
[16] = Selectivity ratio of substrate activity at PEPT1 (unknown origin) expressed in MDCK cells assessed as PEPT1 mediated drug uptake to drug uptake in MDCK cells
[17] = molecular target: T2, Sodium- and chloride-dependent neutral and basic amino acid transporter B(0+) (Homo sapiens, UniProt Q9UN76); assay: Substrate activity at SLC6A14 (unknown origin) expressed in Xenopus laevis oocytes assessed as ABT0+ mediated drug uptake at 0.5 mM incubated for 10 mins by HPLC analysis; assay type: ADME, cell-based; settings: oocyte, 500 µM
T2 sequence (Q9UN76 whole entry): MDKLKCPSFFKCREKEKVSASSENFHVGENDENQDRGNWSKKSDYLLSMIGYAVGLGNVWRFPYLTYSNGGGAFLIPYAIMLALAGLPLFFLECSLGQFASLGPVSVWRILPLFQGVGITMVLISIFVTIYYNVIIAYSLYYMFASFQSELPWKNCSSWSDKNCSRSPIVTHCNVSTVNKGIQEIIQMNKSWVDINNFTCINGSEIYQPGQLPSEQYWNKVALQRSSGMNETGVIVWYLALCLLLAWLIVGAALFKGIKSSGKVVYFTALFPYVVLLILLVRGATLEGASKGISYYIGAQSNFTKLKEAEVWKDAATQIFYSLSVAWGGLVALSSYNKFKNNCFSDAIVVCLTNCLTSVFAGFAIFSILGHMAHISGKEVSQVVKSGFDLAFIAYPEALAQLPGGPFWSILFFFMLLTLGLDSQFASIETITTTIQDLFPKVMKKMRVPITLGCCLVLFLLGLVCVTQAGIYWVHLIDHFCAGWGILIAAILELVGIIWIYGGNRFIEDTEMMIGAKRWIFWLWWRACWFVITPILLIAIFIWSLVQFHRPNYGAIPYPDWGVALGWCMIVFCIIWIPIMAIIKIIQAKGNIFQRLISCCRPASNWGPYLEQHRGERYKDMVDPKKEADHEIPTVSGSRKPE

[18] = AUC (0 to t) in NOD SCID nude mouse plasma xenografted with ZR-75-1 cells at 90 mg/kg, iv measured up to 24 hrs by HPLC-MS/MS analysis; assay type: ADME, organism-based; design: route intravenous, dose 90 mg/kg, time <=24
[19] = Half life of compound in human MIA PaCa-2 cell homogenate; assay type: ADME, tissue-based
MIA PaCa-2 = assay: Antitumour activity against human MIA-PaCa-2 cells xenografted in NOD SCID nude mouse assessed as tumour inhibition at 90 mg/kg, iv administered for 20 days measured every 2 day by caliper method relative to control; assay type: functional; settings: MIA PaCa-2, iv, 480 h, time 20 day
MDA-MB-231 = assay: Antitumour activity against human MDA-MB-231 cells xenografted in NOD SCID nude mouse assessed as tumour inhibition at 90 mg/kg, iv administered for 20 days measured every 2 day by caliper method relative to control; assay type: functional; settings: MDA-MB-231, iv, 480 h, time 20 day
[20] = compound: CC(C)[C@H](N)C(=O)OC[C@H]1O[C@@H](n2cc(F)c(=O)[nH]c2=O)C[C@@H]1O; assay: (§1) Substrate activity at SLC6A14 (unknown origin) expressed in Xenopus laevis oocytes assessed as Vmax by measuring ABT0+ mediated drug uptake incubated for 10 mins in presence of glycine by HPLC based Michaelis-Menten analysis; assay type: cell-based; settings: Homo sapiens, Oocyte
[21] = compound: N[C@@H](CCC(=O)OC[C@H]1O[C@@H](n2cc(F)c(=O)[nH]c2=O)C[C@@H]1O)C(=O)O; assay: as §1; assay type: cell-based; settings: Homo sapiens, Oocyte
[22] = compound: N[C@@H](CC(=O)OC[C@H]1O[C@@H](n2cc(F)c(=O)[nH]c2=O)C[C@@H]1O)C(=O)O; assay: as §1; assay type: cell-based; settings: Homo sapiens, Oocyte
[23] = compound: CC(C)[C@H](N)C(=O)OC[C@H]1O[C@@H](n2cc(F)c(=O)[nH]c2=O)C[C@@H]1O; assay: (§2) Substrate activity at SLC6A14 (unknown origin) expressed in Xenopus laevis oocytes assessed as Km by measuring ABT0+ mediated drug uptake incubated for 10 mins in presence of glycine by HPLC based Michaelis-Menten analysis; assay type: cell-based; settings: Homo sapiens, Oocyte
[24] = compound: N[C@@H](CCC(=O)OC[C@H]1O[C@@H](n2cc(F)c(=O)[nH]c2=O)C[C@@H]1O)C(=O)O; assay: as §2; assay type: cell-based; settings: Homo sapiens, Oocyte
[25] = compound: N[C@@H](CC(=O)OC[C@H]1O[C@@H](n2cc(F)c(=O)[nH]c2=O)C[C@@H]1O)C(=O)O; assay: as §2; assay type: cell-based; settings: Homo sapiens, Oocyte

Drug uptake [1]: < 0.04 nmol/mg/min
Drug uptake [4]: < 0.04 nmol/mg/min
Cmax [5]: 434.1 ng/mL
Cmax [6]: 374.4 ng/g
half-life at 300 µM (thymidine phosphorylase): 10.2 min
Drug uptake [7]: < 0.04 nmol/mg/min
AUCt [9]: 4107.2 ng·h/mL
IC50 [11]: 12.2 mM
half-life [12]: 23.1 min
Ratio [13]: 0.5
AUCt [14]: 1877.1 ng·h/g
half-life [15]: 13.2 min
Drug uptake [17]: < 0.04 nmol/mg/min
AUC(0-t) at 24 h [18]: 3420 ng·h/mL
half-life [19]: 15.6 min
Molecule: O=c1[nH]c(=O)n([C@H]2C[C@H](O)[C@@H](CO)O2)cc1F [FLOXURIDINE]
Activity [2]: 28.4 g
Activity [3]: 24.7 g
Activity [8]: 25.8 g
inhibition in vivo at 90 mg/kg (ZR-75-1): 36.1%
Ratio [10]: 1
Ratio [16]: 1
inhibition in vivo at 90 mg/kg (MIA PaCa-2): 41.3%
inhibition in vivo at 90 mg/kg (MDA-MB-231): 36.9%

B1: Sodium- and chloride-dependent neutral and basic amino acid transporter B(0+) (Homo sapiens), Q9UN76 (protein)
chain: T2 sequence (Q9UN76 whole entry)
Vmax [20]: 278 pmol/mg/min
Vmax [21]: 235 pmol/mg/min
Vmax [22]: 201 pmol/mg/min
Km [23]: 54.6 µM
Km [24]: 84 µM
Km [25]: 35.6 µM
